PubChem BioAssay (NCI)
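Each compound was tested at five concentrations against cells in 96-well plates for 48 hours. At the GI50, growth is halved. At the TGI there is no net growth.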

Legend:
Test in all cases: growth of human tumour cells (NCI), 48 h
MDA-MB-231 breast = test system: MDA-MB-231 breast
OVCAR-3 ovarian = test system: OVCAR-3 ovarian
SK-MEL-2 melanoma = test system: SK-MEL-2 melanoma
M14 melanoma = test system: M14 melanoma
UO-31 renal = test system: UO-31 renal
SF-539 CNS = test system: SF-539 CNS
NCI-H226 lung = test system: NCI-H226 lung
HCC-2998 colon = test system: HCC-2998 colon
RXF 393 renal = test system: RXF 393 renal
NCI/ADR-RES ovarian = test system: NCI/ADR-RES ovarian

SMILES | GI50 (MDA-MB-231 breast) [µM] | TGI (MDA-MB-231 breast) [µM] | GI50 (OVCAR-3 ovarian) [µM] | TGI (OVCAR-3 ovarian) [µM] | GI50 (SK-MEL-2 melanoma) [µM] | TGI (SK-MEL-2 melanoma) [µM] | GI50 (M14 melanoma) [µM] | TGI (M14 melanoma) [µM] | GI50 (UO-31 renal) [µM] | TGI (UO-31 renal) [µM] | GI50 (SF-539 CNS) [µM] | TGI (SF-539 CNS) [µM] | TGI (NCI-H226 lung) [µM] | GI50 (HCC-2998 colon) [µM] | TGI (HCC-2998 colon) [µM] | GI50 (RXF 393 renal) [µM] | TGI (RXF 393 renal) [µM] | GI50 (NCI/ADR-RES ovarian) [µM] | TGI (NCI/ADR-RES ovarian) [µM] | GI50 (NCI-H226 lung) [µM]
CCN1CCN(Cc2ccc3cc(C(=O)Nc4cc(NC(=O)c5ccc6c(c5)OCCO6)ccc4F)ccc3n2)CC1 | 0.0332 | 0.569 | 0.0567 | 0.766 | 0.029 | 0.118 | 0.0505 | 11.8 | 0.0376 | 1.13 | 0.0824 | 0.72 | 3.45 | 0.0511 | 5.73 | 0.0142 | 0.0729 | 0.369 | 9.55 | 
N=C1N=Nc2nc(C3(c4nc5n(c4O)C(=N)N=N5)Cc4ccccc4C3=O)c(O)n21 (stereo not given) |  | > 100 |  | > 100 | > 100 | > 100 |  | > 100 |  | > 100 |  | > 100 | > 100 |  | > 100 |  | > 100 |  | > 100 | 
CCC1=C[C@H]2CN(CCc3c([nH]c4ccccc34)[C@@](C(=O)OC)(c3cc4c(cc3OC)N(C)[C@H]3[C@@](O)(C(=O)OC)[C@H](OC(C)=O)[C@]5(CC)[C@@H]6C[C@@H]6CN6CC[C@]43[C@@H]65)C2)C1 | 0.0864 | 1.88 | 0.0105 | 2.59 | 0.0752 | 4.64 | 0.0264 | 0.156 | 0.175 | 5.02 | 0.054 | 0.179 | 10.3 | 0.084 | 3.07 |  |  | 0.161 | 1.42 | 2.65
Cc1cc(Cl)ccc1Nc1nc(C(F)(F)F)ccc1C(=O)N/N=C/c1ccc(F)cc1 | 1.47 | 5.94 | 0.491 | 2.24 | 1.84 | 5.82 | 1.84 | 9.64 | 1.71 | 5.35 | 1.96 | 5.67 | 7.63 | 1.1 | 4.54 |  |  | 2.27 | 19.2 | 2.36
COC(=O)[C@]1(C)CCC[C@]2(C)C3CC4OOC3(C=C4C(C)C)CCC21 (stereo not given in full) |  |  |  | 76.6 |  | 31.5 |  | 30.4 |  | 30.3 |  | 30.7 | 35.4 |  | 30.4 |  |  |  |  | 
C=C1CCC2C(C)(CO)C(O)CCC2(C)C1CC(O)C1=CCOC1=O (stereo not given) |  |  |  | 58.9 |  | > 100 |  | > 100 |  | > 100 |  | 55 | > 100 |  | 40.8 |  |  |  |  | 
CC1=C(C(=O)Nc2ccc(Cl)c(Cl)c2)C(c2cccc(O)c2)NC(=S)N1 (stereo not given) | 8.44 | 20 | 5.69 | 12.5 | 8 | 18.3 | 13.6 | 26.7 | 9.48 | 19.1 | 8.15 | 15.7 | 30.8 |  |  | 12.8 | 29.3 |  |  | 12
COc1ccc2c(c1)N(CCC1CCCCN1C)c1ccccc1S2 (stereo not given) |  | 23.6 |  | 31.4 |  | 29.1 |  | 10.9 |  |  |  | 74.4 | 47.8 |  |  |  | 21.8 |  | 25.4 | 
COC(=O)/C(Br)=C/c1c[nH]c2ccc(Br)cc12 | 11.2 | 30.4 | 16.2 | 66.9 | 6.9 | 25.4 | 11.4 | 25.8 | 6.36 | 30.1 | 14.9 | 32.9 | 33.2 | 15.9 | 30.4 |  |  | 12.4 | 47.8 | 14.4
N#Cc1ccccc1/C=N/O |  |  |  | > 100 |  |  |  | > 100 |  | > 100 |  | > 100 | > 100 |  | > 100 |  | > 100 |  |  | 
CCCN1CN(C(C(=O)N[C@@H]2C(=O)N3C(C(=O)O)=C(C)CSC23)c2ccccc2)CSC1=S (stereo not given in full) |  |  |  | > 100 |  | > 100 |  | > 100 |  | > 100 |  | > 100 |  |  |  |  | 82.5 |  |  | 
C/C(CC(=O)Nc1ccc([N+](=O)[O-])cc1)=N/N=C(N)N |  |  |  | > 100 |  | > 100 |  | > 100 |  | > 100 |  | > 100 | > 100 |  | > 100 |  | > 100 |  |  | 
O=C(Nc1ccc(Cl)cc1Cl)/C(Cl)=C1/Sc2ccccc2NC1=O |  |  |  |  |  | 48.3 |  | > 100 |  | 77.2 |  | > 100 | 79.2 |  | > 100 |  | 75.8 |  |  | 
Cc1ccc(S(=O)(=O)NC(=O)Nc2nc(Cl)cc(Cl)n2)cc1 |  |  |  | > 100 |  | > 100 |  | > 100 |  | > 100 |  | > 100 | > 100 |  | > 100 |  | > 100 |  |  | 
O=C(Nc1cccc(-n2cc(-c3ccncc3)c(-c3ccc(O)c(Cl)c3)n2)c1)Nc1ccc(Cl)c(C(F)(F)F)c1 | 1.84 | 7.63 |  |  | 2.14 | 4.28 | 1.79 | 3.77 | 2.65 | 7.24 | 1.76 | 5.99 | 4.46 | 2.81 | 6.98 | 1.19 | 3.74 | 2.96 | 9.03 | 2.02
O=c1nc2[nH]nc(-c3ccccc3)c2n[nH]1 |  |  |  | > 100 |  | > 100 |  | > 100 |  | > 100 |  | 36.4 | > 100 |  | > 100 |  | > 100 |  |  | 
C=CCn1c(=S)sc2c(=O)[nH]cnc21 |  |  |  | > 100 |  | > 100 |  | > 100 |  | > 100 |  | > 100 |  |  | > 100 |  |  |  |  | 
Cc1ccccc1C(C#N)/C(=N/NC(=O)C(=O)NN)C(=O)Nc1cccc(C(F)(F)F)c1 (stereo not given) |  |  |  | > 100 |  | > 100 |  | > 100 |  | > 100 |  | > 100 | > 100 |  | > 100 |  |  |  |  | 
COc1cc([C@@H]2c3cc4c(cc3[C@@H](NC(=O)c3ccc([N+](=O)[O-])cc3)C3COC(=O)[C@@H]32)OCO4)cc(OC)c1O (stereo not given in full) |  |  |  | 4.81 |  | 6.61 |  | > 100 |  | 10.4 |  | 2.06 | 1.82 |  | 3.44 |  | 34.8 |  |  | 
